Laboratory results reported in patent publication US20200289523A1, “FIXED DOSED PHARMACEUTICAL COMPOSITION COMPRISING AMIODIPINE, CANDESARTAN CILEXETIL AND HYDROCHLOROTHIAZIDE FOR THE TREATMENT OF HYPERTENSION” (MIDAS PHARMA GMBH, priority 2016, published 2020).

Legend:
[1] = Solubility in various standard dissolution media (FIG. 1); type: physicochemical; conditions: at low pH-values
[2] = In-vitro dissolution of tablets (Ph. Eur. 2.9.3/USP <711>); type: physicochemical; conditions: on changes of the composition of the formulation
Protocol: The in-vitro dissolution of tablets was analyzed according to Ph.

| solubility [1] | SMILES | dissolution profile of Hydrochlorothiazide [2] |
| --- | --- | --- |
| barely soluble | CCOc1nc2cccc(C(=O)OC(C)OC(=O)OC3CCCCC3)c2n1Cc1ccc(-c2ccccc2-c2nnn[nH]2)cc1 (centres unmarked) [Candesartan cilexetil] | – |
| – | NS(=O)(=O)c1cc2c(cc1Cl)NCNS2(=O)=O [Hydrochlorothiazide, 6-chloro-1,1-dioxo-3,4-dihydro-2H-1,2,4-benzothiadiazine-7-sulfonamide] | not influenced by changes of the composition |
